Measured values taken from patent US20010014454A1, “NOVEL METAL COMPLEXES” (priority 2000, published 2001).

What was measured:
[1] = molecular target: T1, G-CSF receptor (Mus musculus, UniProt P40223); test: Luciferase assay and EDTA (NFS60 cells, with or without metal chlorides); assay type: cell-based, murine; details: for agonist activity in the presence of EDTA: in the presence of EDTA (FIGS. 3 and 4)
T1 construct: they express endogenous G-CSF receptors; endogenous in cells; host or cells: NFS60 murine myeloid cells with a G-CSF-responsive luciferase reporter
T1 sequence (P40223 26-837): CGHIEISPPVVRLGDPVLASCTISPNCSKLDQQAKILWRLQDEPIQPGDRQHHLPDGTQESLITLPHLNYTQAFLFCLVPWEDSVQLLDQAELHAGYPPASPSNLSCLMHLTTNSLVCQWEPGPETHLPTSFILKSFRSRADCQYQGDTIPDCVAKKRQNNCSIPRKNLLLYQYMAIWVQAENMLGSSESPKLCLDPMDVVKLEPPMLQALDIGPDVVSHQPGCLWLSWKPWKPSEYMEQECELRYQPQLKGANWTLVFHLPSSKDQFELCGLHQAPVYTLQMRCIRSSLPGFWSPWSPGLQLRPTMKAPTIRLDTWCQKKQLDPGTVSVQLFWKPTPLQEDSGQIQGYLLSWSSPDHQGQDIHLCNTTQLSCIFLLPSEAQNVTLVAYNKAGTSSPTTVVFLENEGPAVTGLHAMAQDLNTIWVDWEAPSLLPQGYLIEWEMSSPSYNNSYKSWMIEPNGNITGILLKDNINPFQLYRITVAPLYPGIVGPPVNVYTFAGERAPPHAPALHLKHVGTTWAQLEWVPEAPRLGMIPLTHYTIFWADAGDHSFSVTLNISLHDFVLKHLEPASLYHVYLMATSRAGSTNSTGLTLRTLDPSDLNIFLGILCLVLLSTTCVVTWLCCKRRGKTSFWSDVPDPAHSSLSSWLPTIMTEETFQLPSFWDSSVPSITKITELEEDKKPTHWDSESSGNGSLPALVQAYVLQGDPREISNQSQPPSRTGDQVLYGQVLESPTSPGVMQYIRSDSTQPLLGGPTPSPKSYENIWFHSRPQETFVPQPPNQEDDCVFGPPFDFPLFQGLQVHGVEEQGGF
Experimental: FIG. 3 is an analysis of the effect of ethylenediaminetetraacetic acid (as used herein—EDTA) on the activity of Compound 1a (from Example 1) in NFS60 cells. Shown are luciferase response curves of Compound 1a at the indicated concentrations and in the presence of various concentrations of EDTA. […] The media in this assay contained a small amount (1-5 uM) of zinc(II).
FIGS. 7 and 8 show an analysis of the effect of metal chlorides on the EDTA depleted activity of Compound 1a on NFS60 cells. Shown are luciferase response curves as effected by the indicated metal chlorides. […] None of the other metals tested could overcome the inhibitory effect of EDTA.
In order to determine the requisiteness of zinc chelation of small organic molecules to agonist activity at dimeric cell-surface receptors, the above luciferase assay was performed on the G-CSF receptor in the presence of EDTA. EDTA is a strong metal chelator and had as it only effect, the removal of zinc from the ligand-receptor interaction.

[2] = molecular target: T1, G-CSF receptor; test: Luciferase reporter gene assay in G-CSF-responsive NFS60 cells; assay type: cell-based, murine; details: absence of zinc
Experimental: Activity of compound 1a is below the threshold of 150% over background. The study was performed as a Luciferase assay configured on the G-CSF-responsive NFS60 cell line as described in Tian et al., Science 281, 257-259 (1998). The experiments shown in FIGS. 2-8 used the same NFS60 cell line.
Compounds of the present invention are tested for potency as agonist of a dimeric cell-surface receptor in a Luciferase reporter gene assay such as described in Tian et al., Science 281. 257-259 (1998). For example, for G-CSF NFS60 cells (Holmes, et al., Proc. Natl. Acad. Sci. USA 82: 6687-6691 (1985)) are selected because they express endogenous G-CSF receptors closely matching the pattern of STAT (signal transducers and activators of transcription) activation observed in primary murine and human bone marrow cells.

[3] = test system: peripheral blood neutrophil and monocyte count; test: In vivo evaluation of peripheral blood neutrophil and monocyte count in the mouse
Experimental: Compounds of this invention are also tested for activity in the following assays: CFU-G assay (an example of which is described in King A G, Talmadge J., Badger A M, Pelus L M. Regulation of colony stimulating activity production from bone marrow stromal cells by the hematoregulatory peptide, HP-5. Exp. Hematol. 20:223-228, 1992) and in vivo evaluation of peripheral blood neutrophil and monocyte count in the mouse (an example of which is described in Pelus, L. M.; King, A. G.; Broxmeyer, H. E.; DeMarsh, P. L.; Petteway, S. R.; Bhatnagar, P. K., In vivo modulation of hematopoiesis by a novel hematoregulatory peptide Exp-Hematol. 1994 22(3): 239-47). In order to confirm the requirement for zinc(II) chelation, the above CFU-G assay was also conducted in the presence of EDTA.

[4] = molecular target: G-CSF/Fc fusion protein; test: Isothermal titration microcalorimetry; assay type: binding; details: in the presence of zinc
Experimental: Zinc-mediated affinity of compounds from this invention for dimeric cell-surface receptors (specifically the G-CSF receptor) was measured by isothermal titration microcalorimetry experiments. Titration microcalorimetry detects binding as heat originating from the intrinsic bond forming enthalpy change. In this assay, the compounds were titrated first against zinc(II) alone. In a separate experiment, the compounds were then assayed in the presence of zinc and a dimeric cell-surface receptor/Fc fusion protein (a G-CSF/Fc fusion protein), which contained the extracellular domain of the receptor presented in a dimeric form due to the Fc component.

Molecule | effect of metal chlorides on the EDTA depleted luciferase activity ([1]; Compound 1a, 50 micromolar EDTA, plus metal chlorides) | effect of EDTA on luciferase activity ([1]; EDTA at 1.2 millimolar, media contained 1-5 uM zinc(II)) | agonist activity in the presence of EDTA [1] | luciferase activity over background [2] [%] | peripheral blood neutrophil and monocyte count [3] | affinity for the fusion protein construct [4] | effect of EDTA on luciferase activity ([1]; EDTA at both 1.2 and 5 millimolar)
c1ccc(C23NC(=Nc4nc5ccccc5[nH]4)NC2(c2ccccn2)NC(=Nc2nc4ccccc4[nH]2)N3)nc1 (stereo not shown) [Compound 1a, 2,5-Bis[2-benzimidazolylimino]-3a,6a-bis(2-pyridyl)-1,2,3,3a,4,5,6,6a-octahydroimidazo[4,5-d]imidazole] | Only zinc (II) at concentrations 0.5-10 micromolar can overcome the inhibition | antagonized | abrogated | < 150 | elevation | submicromolar | 
Cc1ccc2nc(N=C3NC4(c5ccccn5)NC(=Nc5nc6ccccc6[nH]5)NC4(c4ccccn4)N3)[nH]c2c1.O=C(O)C(F)(F)F.O=C(O)C(F)(F)F (stereo not shown) [Compound 3a, 5-(2-benzimidazolylimino)-2-[(5-methyl-2-benzimidazolyl)imino]-3a,6a-bis(2-pyridyl)-1,2,3,3a,4,5,6,6a-octahydroimidazo[4,5-d]imidazole bis(trifluoroacetate) salt] |  |  |  |  | elevation | submicromolar | 
recombinant G-CSF: the natural ligand (i.e. G-CSF or recombinant G-CSF) of the G-CSF receptor (protein, UniProt P09919 31-207, looked up) Granulocyte …: TPLGPASSLPQSFLLKCLEQVRKIQGDGAALQEKLVSECATYKLCHPEELVLLGHSLGIPWAPLSSCPSQALQLAGCLSQLHSGLFLYQGLLQALEGISPELGPTLDTLQLDVADFATTIWQQMEELGMAPALQPTQGAMPAFASAFQRRAGGVLVASHLQSFLEVSYRVLRHLAQP |  |  | not mediated by metal ions |  |  |  | little effect
